Measured values as given in patent publication US10582709B2, “Butyrolactones as herbicides” (FMC Corporation, priority 2015, dated 2020).

These compounds were tested on foxtail, giant (giant foxtail, Setaria faberii) (assay: Test A preemergence, giant foxtail). Details: 125 g ai/ha, visual rating after approx. 10 d, 0 to 100 scale, 0 no effect, 100 complete control.
Format: in vivo
Text: (§1) Seeds of plant species selected from barnyardgrass (Echinochloa crus-galli), crabgrass (large crabgrass, Digitaria sanguinalis), kochia (Kochia scoparia), ragweed (common ragweed, Ambrosia elatior), morningglory (Ipomoea spp.), velvetleaf (Abutilon theophrasti), ryegrass, Italian (Italian ryegrass, Lolium multiflorum), foxtail, giant (giant foxtail, Setaria faberii), wheat (Triticum aestivum), corn (Zea mays), and pigweed (Amaranthus retroflexus), were planted into a blend of loam soil and sand and treated preemergence with a directed soil spray using test chemicals formulated in a non-phytotoxic solvent mixture which included a surfactant. At the same time, plants selected from these crop and weed species and also blackgrass (Alopecurus myosuroides), and galium (catchweed bedstraw, Galium aparine), were planted in pots containing the same blend of loam soil and sand and treated with postemergence applications of test chemicals formulated in the same manner. Plants ranged in height from 2 to 10 cm and were in the one- to two-leaf stage for the postemergence treatment. Treated plants and untreated controls were maintained in a greenhouse for approximately 10 d, after which time all treated plants were compared to untreated controls and visually evaluated for injury. Plant response ratings, summarized in Table A, are based on a 0 to 100 scale where 0 is no effect and 100 is complete control. A dash (-) response means no test result.

Structure (SMILES)	Plant response rating, Foxtail, Giant
O=C(Nc1ccccc1F)C1C(=O)OCC1c1cccc(C(F)(F)F)c1 (racemic) [Compound 11]	70

Same assay, conditions: 500 g ai/ha, visual rating after approx. 10 d, 0 to 100 scale, 0 no effect, 100 complete control

Structure (SMILES)	Plant response rating, Foxtail, Giant
O=C(Nc1ccccc1F)C1C(=O)OCC1c1cccc(C(F)(F)F)c1 (racemic) [Compound 11]	80

Each compound was assayed on barnyardgrass (Echinochloa crus-galli) (assay: Test A preemergence, barnyardgrass). Details: 125 g ai/ha, visual rating after approx. 10 d, 0 to 100 scale, 0 no effect, 100 complete control.
Format: in vivo
Text: as §1

Structure (SMILES)	Plant response rating, Barnyardgrass
O=C(Nc1ccccc1F)C1C(=O)OCC1c1cccc(C(F)(F)F)c1 (racemic) [Compound 11]	30

Same assay, conditions: 500 g ai/ha, visual rating after approx. 10 d, 0 to 100 scale, 0 no effect, 100 complete control

Structure (SMILES)	Plant response rating, Barnyardgrass
O=C(Nc1ccccc1F)C1C(=O)OCC1c1cccc(C(F)(F)F)c1 (racemic) [Compound 11]	80

What follows are compounds tested on rice (Oryza sativa) (assay: Test B flooded paddy test, rice). Details: 500 g ai/ha; applied to paddy water at 2-leaf stage; 13 to 15 d; scale 0 no effect to 100 complete control.
Format: in vivo
Method: (§2) Plant species in the flooded paddy test selected from rice (Oryza sativa), sedge, umbrella (small-flower umbrella sedge, Cyperus difformis), ducksalad (Heteranthera limosa), and barnyardgrass (Echinochloa crus-galli) were grown to the 2-leaf stage for testing. At time of treatment, test pots were flooded to 3 cm above the soil surface, treated by application of test compounds directly to the paddy water, and then maintained at that water depth for the duration of the test. Treated plants and controls were maintained in a greenhouse for 13 to 15 d, after which time all species were compared to controls and visually evaluated. Plant response ratings, summarized in Table B, are based on a scale of 0 to 100 where 0 is no effect and 100 is complete control. A dash (-) response means no test result.

Structure (SMILES)	Plant response rating, Flood, Rice
O=C(Nc1ccccc1F)C1C(=O)OCC1c1cccc(C(F)(F)F)c1 (racemic) [Compound 11]	0

These compounds were tested on ragweed (common ragweed, Ambrosia elatior) (assay: Test A preemergence, ragweed). Details: 125 g ai/ha, visual rating after approx. 10 d, 0 to 100 scale, 0 no effect, 100 complete control.
Format: in vivo
Text: as §1

Structure (SMILES)	Plant response rating, Ragweed
O=C(Nc1ccccc1F)C1C(=O)OCC1c1cccc(C(F)(F)F)c1 (racemic) [Compound 11]	0

Same assay, conditions: 500 g ai/ha, visual rating after approx. 10 d, 0 to 100 scale, 0 no effect, 100 complete control

Structure (SMILES)	Plant response rating, Ragweed
O=C(Nc1ccccc1F)C1C(=O)OCC1c1cccc(C(F)(F)F)c1 (racemic) [Compound 11]	0

Each compound was assayed on pigweed (Amaranthus retroflexus) (assay: Test A postemergence, pigweed). Details: 125 g ai/ha, visual rating after approx. 10 d, 0 to 100 scale, 0 no effect, 100 complete control.
Format: in vivo
Text: as §1

Structure (SMILES)	Plant response rating, Pigweed
O=C(Nc1ccccc1F)C1C(=O)OCC1c1cccc(C(F)(F)F)c1 (racemic) [Compound 11]	0

Same assay, conditions: 500 g ai/ha, visual rating after approx. 10 d, 0 to 100 scale, 0 no effect, 100 complete control

Structure (SMILES)	Plant response rating, Pigweed
O=C(Nc1ccccc1F)C1C(=O)OCC1c1cccc(C(F)(F)F)c1 (racemic) [Compound 11]	0

Each compound was assayed on blackgrass (Alopecurus myosuroides) (assay: Test A postemergence, blackgrass). Details: 125 g ai/ha, visual rating after approx. 10 d, 0 to 100 scale, 0 no effect, 100 complete control.
Format: in vivo
Text: as §1

Structure (SMILES)	Plant response rating, Blackgrass
O=C(Nc1ccccc1F)C1C(=O)OCC1c1cccc(C(F)(F)F)c1 (racemic) [Compound 11]	0

Same assay, conditions: 500 g ai/ha, visual rating after approx. 10 d, 0 to 100 scale, 0 no effect, 100 complete control

Structure (SMILES)	Plant response rating, Blackgrass
O=C(Nc1ccccc1F)C1C(=O)OCC1c1cccc(C(F)(F)F)c1 (racemic) [Compound 11]	0

These compounds were tested on sedge, umbrella (small-flower umbrella sedge, Cyperus difformis) (assay: Test B flooded paddy test, umbrella sedge). Details: 500 g ai/ha; applied to paddy water at 2-leaf stage; 13 to 15 d; scale 0 no effect to 100 complete control.
Format: in vivo
Method: as §2

Structure (SMILES)	Plant response rating, Flood, Sedge, Umbrella
O=C(Nc1ccccc1F)C1C(=O)OCC1c1cccc(C(F)(F)F)c1 (racemic) [Compound 11]	0

The compounds below were run on ragweed (common ragweed, Ambrosia elatior) (assay: Test A postemergence, ragweed). Details: 125 g ai/ha, visual rating after approx. 10 d, 0 to 100 scale, 0 no effect, 100 complete control.
Format: in vivo
Text: as §1

Structure (SMILES)	Plant response rating, Ragweed
O=C(Nc1ccccc1F)C1C(=O)OCC1c1cccc(C(F)(F)F)c1 (racemic) [Compound 11]	0

Same assay, conditions: 500 g ai/ha, visual rating after approx. 10 d, 0 to 100 scale, 0 no effect, 100 complete control

Structure (SMILES)	Plant response rating, Ragweed
O=C(Nc1ccccc1F)C1C(=O)OCC1c1cccc(C(F)(F)F)c1 (racemic) [Compound 11]	0

What follows are compounds tested on kochia (Kochia scoparia) (assay: Test A preemergence, kochia). Details: 125 g ai/ha, visual rating after approx. 10 d, 0 to 100 scale, 0 no effect, 100 complete control.
Format: in vivo
Text: as §1

Structure (SMILES)	Plant response rating, Kochia
O=C(Nc1ccccc1F)C1C(=O)OCC1c1cccc(C(F)(F)F)c1 (racemic) [Compound 11]	0

Same assay, conditions: 500 g ai/ha, visual rating after approx. 10 d, 0 to 100 scale, 0 no effect, 100 complete control

Structure (SMILES)	Plant response rating, Kochia
O=C(Nc1ccccc1F)C1C(=O)OCC1c1cccc(C(F)(F)F)c1 (racemic) [Compound 11]	0

What follows are compounds tested on corn (Zea mays) (assay: Test A postemergence, corn). Details: 125 g ai/ha, visual rating after approx. 10 d, 0 to 100 scale, 0 no effect, 100 complete control.
Format: in vivo
Text: as §1

Structure (SMILES)	Plant response rating, Corn
O=C(Nc1ccccc1F)C1C(=O)OCC1c1cccc(C(F)(F)F)c1 (racemic) [Compound 11]	0

Same assay, conditions: 500 g ai/ha, visual rating after approx. 10 d, 0 to 100 scale, 0 no effect, 100 complete control

Structure (SMILES)	Plant response rating, Corn
O=C(Nc1ccccc1F)C1C(=O)OCC1c1cccc(C(F)(F)F)c1 (racemic) [Compound 11]	0

Each compound was assayed on wheat (Triticum aestivum) (assay: Test A postemergence, wheat). Details: 125 g ai/ha, visual rating after approx. 10 d, 0 to 100 scale, 0 no effect, 100 complete control.
Format: in vivo
Text: as §1

Structure (SMILES)	Plant response rating, Wheat
O=C(Nc1ccccc1F)C1C(=O)OCC1c1cccc(C(F)(F)F)c1 (racemic) [Compound 11]	0

Same assay, conditions: 500 g ai/ha, visual rating after approx. 10 d, 0 to 100 scale, 0 no effect, 100 complete control

Structure (SMILES)	Plant response rating, Wheat
O=C(Nc1ccccc1F)C1C(=O)OCC1c1cccc(C(F)(F)F)c1 (racemic) [Compound 11]	20

These compounds were tested on foxtail, giant (giant foxtail, Setaria faberii) (assay: Test A postemergence, giant foxtail). Details: 125 g ai/ha, visual rating after approx. 10 d, 0 to 100 scale, 0 no effect, 100 complete control.
Format: in vivo
Text: as §1

Structure (SMILES)	Plant response rating, Foxtail, Giant
O=C(Nc1ccccc1F)C1C(=O)OCC1c1cccc(C(F)(F)F)c1 (racemic) [Compound 11]	20

Same assay, conditions: 500 g ai/ha, visual rating after approx. 10 d, 0 to 100 scale, 0 no effect, 100 complete control

Structure (SMILES)	Plant response rating, Foxtail, Giant
O=C(Nc1ccccc1F)C1C(=O)OCC1c1cccc(C(F)(F)F)c1 (racemic) [Compound 11]	60

These compounds were tested on ducksalad (Heteranthera limosa) (assay: Test B flooded paddy test, ducksalad). Details: 500 g ai/ha; applied to paddy water at 2-leaf stage; 13 to 15 d; scale 0 no effect to 100 complete control.
Format: in vivo
Method: as §2

Structure (SMILES)	Plant response rating, Flood, Ducksalad
O=C(Nc1ccccc1F)C1C(=O)OCC1c1cccc(C(F)(F)F)c1 (racemic) [Compound 11]	0

The compounds below were run on barnyardgrass (Echinochloa crus-galli) (assay: Test B flooded paddy test, barnyardgrass). Details: 500 g ai/ha; applied to paddy water at 2-leaf stage; 13 to 15 d; scale 0 no effect to 100 complete control.
Format: in vivo
Method: as §2

Structure (SMILES)	Plant response rating, Flood, Barnyardgrass
O=C(Nc1ccccc1F)C1C(=O)OCC1c1cccc(C(F)(F)F)c1 (racemic) [Compound 11]	0

What follows are compounds tested on ryegrass, Italian (Italian ryegrass, Lolium multiflorum) (assay: Test A preemergence, Italian ryegrass). Details: 125 g ai/ha, visual rating after approx. 10 d, 0 to 100 scale, 0 no effect, 100 complete control.
Format: in vivo
Text: as §1

Structure (SMILES)	Plant response rating, Ryegrass, Italian
O=C(Nc1ccccc1F)C1C(=O)OCC1c1cccc(C(F)(F)F)c1 (racemic) [Compound 11]	0

Same assay, conditions: 500 g ai/ha, visual rating after approx. 10 d, 0 to 100 scale, 0 no effect, 100 complete control

Structure (SMILES)	Plant response rating, Ryegrass, Italian
O=C(Nc1ccccc1F)C1C(=O)OCC1c1cccc(C(F)(F)F)c1 (racemic) [Compound 11]	0

What follows are compounds tested on barnyardgrass (Echinochloa crus-galli) (assay: Test A postemergence, barnyardgrass). Details: 125 g ai/ha, visual rating after approx. 10 d, 0 to 100 scale, 0 no effect, 100 complete control.
Format: in vivo
Text: as §1

Structure (SMILES)	Plant response rating, Barnyardgrass
O=C(Nc1ccccc1F)C1C(=O)OCC1c1cccc(C(F)(F)F)c1 (racemic) [Compound 11]	10

Same assay, conditions: 500 g ai/ha, visual rating after approx. 10 d, 0 to 100 scale, 0 no effect, 100 complete control

Structure (SMILES)	Plant response rating, Barnyardgrass
O=C(Nc1ccccc1F)C1C(=O)OCC1c1cccc(C(F)(F)F)c1 (racemic) [Compound 11]	40

Each compound was assayed on kochia (Kochia scoparia) (assay: Test A postemergence, kochia). Details: 125 g ai/ha, visual rating after approx. 10 d, 0 to 100 scale, 0 no effect, 100 complete control.
Format: in vivo
Text: as §1

Structure (SMILES)	Plant response rating, Kochia
O=C(Nc1ccccc1F)C1C(=O)OCC1c1cccc(C(F)(F)F)c1 (racemic) [Compound 11]	0

Same assay, conditions: 500 g ai/ha, visual rating after approx. 10 d, 0 to 100 scale, 0 no effect, 100 complete control

Structure (SMILES)	Plant response rating, Kochia
O=C(Nc1ccccc1F)C1C(=O)OCC1c1cccc(C(F)(F)F)c1 (racemic) [Compound 11]	0

What follows are compounds tested on ryegrass, Italian (Italian ryegrass, Lolium multiflorum) (assay: Test A postemergence, Italian ryegrass). Details: 125 g ai/ha, visual rating after approx. 10 d, 0 to 100 scale, 0 no effect, 100 complete control.
Format: in vivo
Text: as §1

Structure (SMILES)	Plant response rating, Ryegrass, Italian
O=C(Nc1ccccc1F)C1C(=O)OCC1c1cccc(C(F)(F)F)c1 (racemic) [Compound 11]	0

Same assay, conditions: 500 g ai/ha, visual rating after approx. 10 d, 0 to 100 scale, 0 no effect, 100 complete control

Structure (SMILES)	Plant response rating, Ryegrass, Italian
O=C(Nc1ccccc1F)C1C(=O)OCC1c1cccc(C(F)(F)F)c1 (racemic) [Compound 11]	0

The compounds below were run on pigweed (Amaranthus retroflexus) (assay: Test A preemergence, pigweed). Details: 125 g ai/ha, visual rating after approx. 10 d, 0 to 100 scale, 0 no effect, 100 complete control.
Format: in vivo
Text: as §1

Structure (SMILES)	Plant response rating, Pigweed
O=C(Nc1ccccc1F)C1C(=O)OCC1c1cccc(C(F)(F)F)c1 (racemic) [Compound 11]	0

Same assay, conditions: 500 g ai/ha, visual rating after approx. 10 d, 0 to 100 scale, 0 no effect, 100 complete control

Structure (SMILES)	Plant response rating, Pigweed
O=C(Nc1ccccc1F)C1C(=O)OCC1c1cccc(C(F)(F)F)c1 (racemic) [Compound 11]	0

What follows are compounds tested on galium (catchweed bedstraw, Galium aparine) (assay: Test A postemergence, galium). Details: 125 g ai/ha, visual rating after approx. 10 d, 0 to 100 scale, 0 no effect, 100 complete control.
Format: in vivo
Text: as §1

Structure (SMILES)	Plant response rating, Galium
O=C(Nc1ccccc1F)C1C(=O)OCC1c1cccc(C(F)(F)F)c1 (racemic) [Compound 11]	0

Same assay, conditions: 500 g ai/ha, visual rating after approx. 10 d, 0 to 100 scale, 0 no effect, 100 complete control

Structure (SMILES)	Plant response rating, Galium
O=C(Nc1ccccc1F)C1C(=O)OCC1c1cccc(C(F)(F)F)c1 (racemic) [Compound 11]	0
